Results on twelve compounds are retold here after patent US9156877B2, “17-hydroxy-17-pentafluorethyl-estra-4,9(10)-dien-11-benzylidene derivatives, methods for the production thereof and use thereof for treating diseases” (Bayer Intellectual Property GmbH, priority 2009, dated 2015).

The target in assay [1] is T1, human progesterone receptor A (Homo sapiens, UniProt P06401).
T1 construct: expressed in transfected cells; host or cells: SK-N-MC human neuroblastoma cells, stably transfected with pRChPR-A-neo and pMMTV-LUC
T1 sequence (P06401 1-769 isoform P06401-2): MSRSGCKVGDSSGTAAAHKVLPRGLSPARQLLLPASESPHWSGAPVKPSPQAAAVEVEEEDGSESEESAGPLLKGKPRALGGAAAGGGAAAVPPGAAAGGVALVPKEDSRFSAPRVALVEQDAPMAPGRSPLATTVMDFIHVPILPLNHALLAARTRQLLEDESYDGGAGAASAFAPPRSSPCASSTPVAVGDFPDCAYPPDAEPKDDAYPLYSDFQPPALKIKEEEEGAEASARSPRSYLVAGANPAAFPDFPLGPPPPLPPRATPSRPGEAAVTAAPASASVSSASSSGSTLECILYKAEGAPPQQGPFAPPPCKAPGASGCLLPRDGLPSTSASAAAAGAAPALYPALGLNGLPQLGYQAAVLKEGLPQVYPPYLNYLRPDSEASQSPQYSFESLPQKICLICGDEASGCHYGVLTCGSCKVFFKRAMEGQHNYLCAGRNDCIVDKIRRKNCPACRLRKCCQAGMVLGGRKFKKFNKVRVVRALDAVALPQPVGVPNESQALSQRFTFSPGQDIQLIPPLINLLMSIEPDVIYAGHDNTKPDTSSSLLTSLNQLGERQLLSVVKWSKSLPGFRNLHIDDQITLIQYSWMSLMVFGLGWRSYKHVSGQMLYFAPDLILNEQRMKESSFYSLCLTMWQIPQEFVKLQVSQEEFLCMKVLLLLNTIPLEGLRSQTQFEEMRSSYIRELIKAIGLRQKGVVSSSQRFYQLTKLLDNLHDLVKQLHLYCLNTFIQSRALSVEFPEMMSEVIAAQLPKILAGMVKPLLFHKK
Nature of the assay: Progesterone receptor-antagonistic action in stably transfected SK-N-MC cells with MMTV-LUC reporter (PR-A). The assay is classed as cell-based. The settings on record: antagonistic potency against 0.1 nmol/l promegestone, 24 hours, luciferase. As to the method: (§1) Determination of Progesterone Receptor-Antagonistic Action in Stable Transfectants of Human Neuroblastoma Cells (SK-N-MC Cells) with the Human Progesterone A or Progesterone B Receptor and an MN-LUC Reporter Construct
(§2) SK-N-MC cells (human neuroblastoma cells) which have been stably transfected with plasmids expressing the human progesterone receptor B (pRChPR-B-neo) or the human progesterone receptor A (pRChPR-A-neo) and a reporter construct (pMMTV-LUC) were incubated for 24 hours either in the absence (negative control) or in the presence of ascending amounts of the particular test compound (0.01 nmol/l, 0.1 nmol/l, 1 nmol/l, 10 nmol/l, 100 nmol/l and […]), in order to determine the agonistic efficacy. As a positive control of the reporter gene induction, the cells were treated with the synthetic gestagen promegestone (0.01 nmol/l, 0.1 nmol/l, 1 nmol/l, 10 nmol/l, 100 nmol/l and […]). To determine the antagonistic activity, the cells were treated with 0.1 nmol/l promegestone and additionally with ascending amounts of the particular test compound (0.01 nmol/l, 0.1 nmol/l, 1 nmol/l, 10 nmol/l, 100 nmol/l and […]). The activity of the reporter gene LUC (LUC=luciferase) was determined in the cell lysates and measured as RLU (relative light units). All measurements are reported as % efficacy and as EC50 and IC50 concentrations.

Assay [2] has as its target T2, human progesterone receptor B (Homo sapiens, UniProt P06401).
T2 construct: expressed in transfected cells; host or cells: SK-N-MC human neuroblastoma cells, stably transfected with pRChPR-B-neo and pMMTV-LUC
T2 sequence (P06401 1-933): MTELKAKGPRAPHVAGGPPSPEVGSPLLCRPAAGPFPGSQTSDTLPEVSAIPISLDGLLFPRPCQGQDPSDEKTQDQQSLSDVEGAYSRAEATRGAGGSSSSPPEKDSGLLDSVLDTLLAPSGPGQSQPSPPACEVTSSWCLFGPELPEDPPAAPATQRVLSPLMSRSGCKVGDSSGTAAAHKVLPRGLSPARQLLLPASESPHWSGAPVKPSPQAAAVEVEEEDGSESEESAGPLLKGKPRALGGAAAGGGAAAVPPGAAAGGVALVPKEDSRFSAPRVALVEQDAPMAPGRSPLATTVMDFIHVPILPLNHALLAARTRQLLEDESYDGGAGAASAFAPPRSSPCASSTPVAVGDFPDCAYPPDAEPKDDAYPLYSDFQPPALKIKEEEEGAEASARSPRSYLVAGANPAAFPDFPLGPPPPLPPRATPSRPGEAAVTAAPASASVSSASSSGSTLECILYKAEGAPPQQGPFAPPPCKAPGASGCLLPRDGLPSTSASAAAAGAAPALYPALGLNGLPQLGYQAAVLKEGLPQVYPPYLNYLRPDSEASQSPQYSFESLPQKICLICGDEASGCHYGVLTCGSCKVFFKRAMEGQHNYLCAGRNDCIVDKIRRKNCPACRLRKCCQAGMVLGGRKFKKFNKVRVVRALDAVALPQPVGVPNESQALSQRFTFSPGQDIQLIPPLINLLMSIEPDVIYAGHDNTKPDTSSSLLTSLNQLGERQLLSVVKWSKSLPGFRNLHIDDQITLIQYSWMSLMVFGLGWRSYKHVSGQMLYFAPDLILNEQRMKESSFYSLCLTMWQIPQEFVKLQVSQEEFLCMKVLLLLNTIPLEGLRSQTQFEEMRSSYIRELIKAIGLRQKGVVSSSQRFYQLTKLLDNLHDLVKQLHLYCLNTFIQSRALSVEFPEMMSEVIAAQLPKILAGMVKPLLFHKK
Nature of the assay: Progesterone receptor-antagonistic action in stably transfected SK-N-MC cells with MMTV-LUC reporter (PR-B). It counts as cell-based. Particulars: antagonistic potency against 0.1 nmol/l promegestone, 24 hours, luciferase. As to the method:
as §1, §2

One may read the IC50 as the point on the concentration scale where inhibition reaches its midpoint. Lower therefore signals inhibition by little substance. Consider `CC(C)(C)c1ccc(NC(=O)NC/C=C/c2ccc([C@H]3C[C@@]4(C)C(CC[C@@]4(O)C(F)(F)C(F)(F)F)C4CCC5=CC(=O)CCC5=C43)cc2)cc1` (stereo partly drawn) [Example 47], for which the IC50 was determined as 0.8 nM in assay [1] and 0.3 nM in assay [2].

With `C[C@]12C[C@H](c3ccc(/C=C/c4ccc(S(C)(=O)=O)cc4)cc3)C3=C4CCC(=O)C=C4CC[C@H]3[C@@H]1CC[C@@]2(O)C(F)(F)C(F)(F)F` [Example 32, (8S,11R,13S,14S,17S)-17-hydroxy-11-{4-[(E)-2-(4-methanesulphonylphenyl)vinyl]phenyl}-13-methyl-17-pentafluoroethyl-1,2,6,7,8,11,12,13,14,15,16,17-dodecahydrocyclopenta[a]phenanthren-3-one], the IC50 in assay [1] and in assay [2] was 0.01 nM each time.

`C=Cc1cccc([C@H]2C[C@@]3(C)[C@@H](CC[C@@]3(O)C(F)(F)C(F)(F)F)[C@@H]3CCC4=CC(=O)CCC4=C32)c1` [Example 19, (8S,11R,13S,14S,17S)-17-hydroxy-13-methyl-17-pentafluoroethyl-11-(3-vinylphenyl)-1,2,6,7,8,11,12,13,14,15,16,17-dodecahydrocyclopenta[a]phenanthren-3-one]: the IC50 in assay [1] and in assay [2] was 3 nM each time.

Take `C[C@]12C[C@H](c3ccc(/C=C/CNC(=O)NCC(=O)O)cc3)C3=C4CCC(=O)C=C4CCC3C1CC[C@@]2(O)C(F)(F)C(F)(F)F` (stereo partly drawn) [Example 52, 3-(3-{(E)-3-[4-((8S,11R,13S,14S,17S)-17-hydroxy-13-methyl-3-oxo-17-pentafluoroethyl-2,3,6,7,8,11,12,13,14,15,16,17-dodecahydro-1H-cyclopenta[a]phenanthren-11-yl)phenyl]allyl}ureido)acetic acid]: the IC50 in assay [1] turned out to be 3 nM; in assay [2], 2 nM.

Turning to `C[C@]12C[C@H](c3ccc(C=NOCc4ccccc4)cc3)C3=C4CCC(=O)C=C4CC[C@H]3[C@@H]1CC[C@@]2(O)C(F)(F)C(F)(F)F` [Example 35, 4-((8S,11R,13S,14S,17S)-17-hydroxy-13-methyl-3-oxo-17-pentafluoroethyl-2,3,6,7,8,11,12,13,14,15,16,17-dodecahydro-1H-cyclopenta[a]phenanthren-11-yl)benzaldehyde O-benzyl oxime], the IC50 in assay [1] turned out to be 0.1 nM; in assay [2], 0.09 nM.

In the case of `COC(=O)c1cccc(/C=C/c2ccc([C@H]3C[C@@]4(C)[C@@H](CC[C@@]4(O)C(F)(F)C(F)(F)F)[C@@H]4CCC5=CC(=O)CCC5=C43)cc2)c1` [Example 30, 3-{(E)-2-[4-((8S,11R,13S,14S,17S)-17-hydroxy-13-methyl-3-oxo-17-pentafluoroethyl-2,3,6,7,8,11,12,13,14,15,16,17-dodecahydro-1H-cyclopenta[a]phenanthren-11-yl)phenyl]vinyl}benzoic acid methyl ester], the IC50 in assay [1] came out at 0.09 nM; in assay [2] it was 0.08 nM.

With `Cc1noc(C)c1NC(=O)NC/C=C/c1ccc([C@H]2C[C@@]3(C)[C@@H](CC[C@@]3(O)C(F)(F)C(F)(F)F)[C@@H]3CCC4=CC(=O)CCC4=C32)cc1` [Example 48, 1-(3,5-dimethylisoxazol-4-yl)-3-{(E)-3-[4-((8S,11R,13S,14S,17S)-17-hydroxy-13-methyl-3-oxo-17-pentafluoroethyl-2,3,6,7,8,11,12,13,14,15,16,17-dodecahydro-1H-cyclopenta[a]phenanthren-11-yl)phenyl]allyl}urea], the IC50 in assay [1] amounted to 0.09 nM; in assay [2], 0.03 nM.

With `CCOC(=O)/C=C/C=C/c1ccc([C@H]2C[C@@]3(C)[C@@H](CC[C@@]3(O)C(F)(F)C(F)(F)F)[C@@H]3CCC4=CC(=O)CCC4=C32)cc1` [Example 15, (2E,4E)-5-[4-((8S,11R,13S,14S,17S)-17-hydroxy-13-methyl-3-oxo-17-pentafluoroethyl-2,3,6,7,8,11,12,13,14,15,16,17-dodecahydro-1H-cyclopenta[a]phenanthren-11-yl)phenyl]penta-2,4-dienoic acid ethyl ester], the IC50 is 0.011 nM in assay [1] and less than 0.01 nM in assay [2].

Consider `C[C@]12C[C@H](c3ccc(/C=N/OCc4ccc(Cl)c(Cl)c4)cc3)C3=C4CCC(=O)C=C4CC[C@H]3[C@@H]1CC[C@@]2(O)C(F)(F)C(F)(F)F` [Example 37, 4-((8S,11R,13S,14S,17S)-17-hydroxy-13-methyl-3-oxo-17-pentafluoroethyl-2,3,6,7,8,11,12,13,14,15,16,17-dodecahydro-1H-cyclopenta[a]phenanthren-11-yl)benzaldehyde O-(3,4-dichlorobenzyl)oxime], for which the IC50 in assay [1] is 0.4 nM; in assay [2], 0.5 nM.

As to `CCOC(=O)c1ccc(NC(=O)NC/C=C/c2ccc([C@H]3C[C@@]4(C)[C@@H](CC[C@@]4(O)C(F)(F)C(F)(F)F)[C@@H]4CCC5=CC(=O)CCC5=C43)cc2)cc1` [Example 55, 4-(3-{(E)-3-[4-((8S,11R,13S,14S,17S)-17-hydroxy-13-methyl-3-oxo-17-pentafluoroethyl-2,3,6,7,8,11,12,13,14,15,16,17-dodecahydro-1H-cyclopenta[a]phenanthren-11-yl)phenyl]allyl}ureido)benzoic acid ethyl ester], the IC50 came out at 0.1 nM in assay [1] and 0.09 nM in assay [2].

Regarding `COc1ccc(C/C=C/c2ccc([C@H]3C[C@@]4(C)[C@@H](CC[C@@]4(O)C(F)(F)C(F)(F)F)[C@@H]4CCC5=CC(=O)CCC5=C43)cc2)cc1` [Example 3, (8S,11R,13S,14S,17S)-17-hydroxy-11-{4-[(E)-3-(4-methoxyphenyl)-propenyl]phenyl}-13-methyl-17-pentafluoroethyl-1,2,6,7,8,11,12,13,14,15,16,17-dodecahydrocyclopenta[a]phenanthren-3-one], the IC50 in assay [1] stood at 1.5 nM; in assay [2] it was 1.8 nM.

As to `CC(C)CO/N=C/c1ccc([C@H]2C[C@@]3(C)[C@@H](CC[C@@]3(O)C(F)(F)C(F)(F)F)[C@@H]3CCC4=CC(=O)CCC4=C32)cc1` [Example 38, 4-((8S,11R,13S,14S,17S)-17-hydroxy-13-methyl-3-oxo-17-pentafluoroethyl-2,3,6,7,8,11,12,13,14,15,16,17-dodecahydro-1H-cyclopenta[a]phenanthren-11-yl)benzaldehyde O-isobutyl oxime], the IC50 is 0.09 nM in assay [1] and 0.1 nM in assay [2].
